Measurements reported in ChEMBL document CHEMBL1201862, “PubChem BioAssay data set” (2004).
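Cultured in 96-well plates, cells were exposed to test compound for 48 hours across five concentrations. GI50: concentration for 50% inhibition of growth.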 Active and inactive are the calls of the source. Cut-off read from the data, not from the text of the source: active = GI50 up to about 1.1 µM and inactive = higher.

Legend:
Experiment in all cases: inhibition of tumour cell growth, NCI panel, 48 h
OVCAR-8 = system: OVCAR-8
SW-620 = system: SW-620
SK-MEL-5 = system: SK-MEL-5
CAKI-1 = system: CAKI-1
NCI-H460 = system: NCI-H460
SK-MEL-28 = system: SK-MEL-28
A498 = system: A498
SF-295 = system: SF-295
DLD-1 = system: DLD-1
UACC-257 = system: UACC-257
UACC-62 = system: UACC-62
LOX IMVI = system: LOX IMVI
IGROV-1 = system: IGROV-1
HCC 2998 = system: HCC 2998
OVCAR-5 = system: OVCAR-5
SF-268 = system: SF-268
RPMI-8226 = system: RPMI-8226
TK-10 = system: TK-10
ACHN = system: ACHN

| SMILES | GI50 (OVCAR-8) | GI50 (SW-620) | GI50 (SK-MEL-5) | GI50 (CAKI-1) | GI50 (NCI-H460) | GI50 (SK-MEL-28) | GI50 (A498) | GI50 (SF-295) | GI50 (DLD-1) | GI50 (UACC-257) | GI50 (UACC-62) | GI50 (LOX IMVI) | GI50 (IGROV-1) | GI50 (HCC 2998) | GI50 (OVCAR-5) | GI50 (SF-268) | GI50 (RPMI-8226) | GI50 (TK-10) | GI50 (ACHN) |
| --- | --- | --- | --- | --- | --- | --- | --- | --- | --- | --- | --- | --- | --- | --- | --- | --- | --- | --- | --- |
| CSc1nnc(CCC(=O)Nc2c(C)cccc2C)o1 | > 100 µM (inactive) | > 100 µM (inactive) | > 100 µM (inactive) | > 100 µM (inactive) | > 100 µM (inactive) | > 100 µM (inactive) | > 100 µM (inactive) | > 100 µM (inactive) | > 100 µM (inactive) | > 100 µM (inactive) | > 100 µM (inactive) | > 100 µM (inactive) | > 100 µM (inactive) | > 100 µM (inactive) | > 100 µM (inactive) | > 100 µM (inactive) | > 100 µM (inactive) | > 100 µM (inactive) | – |
| N#C/C(=C\c1ccc(O)cc1O)C(N)=O | > 100 µM (inactive) | > 100 µM (inactive) | – | 58.1 µM (inactive) | > 100 µM (inactive) | 93.3 µM (inactive) | 65 µM (inactive) | > 100 µM (inactive) | 67.1 µM (inactive) | 51.1 µM (inactive) | 58.6 µM (inactive) | > 100 µM (inactive) | > 100 µM (inactive) | > 100 µM (inactive) | > 100 µM (inactive) | > 100 µM (inactive) | 55.6 µM (inactive) | > 100 µM (inactive) | 32.7 µM (inactive) |
| COC(=O)/C=C/C1C(C(=O)OC)C2(C(=O)OC)CCC1(C(=O)OC)N2 (centres undefined) | > 100 µM (inactive) | > 100 µM (inactive) | > 100 µM (inactive) | > 100 µM (inactive) | > 100 µM (inactive) | – | > 100 µM (inactive) | > 100 µM (inactive) | > 100 µM (inactive) | > 100 µM (inactive) | > 100 µM (inactive) | > 100 µM (inactive) | > 100 µM (inactive) | > 100 µM (inactive) | > 100 µM (inactive) | > 100 µM (inactive) | > 100 µM (inactive) | > 100 µM (inactive) | > 100 µM (inactive) |
| CC(c1cccc2ccccc12)/[N+]([O-])=C/c1ccccc1 (centres undefined) | > 100 µM (inactive) | > 100 µM (inactive) | > 100 µM (inactive) | – | > 100 µM (inactive) | > 100 µM (inactive) | > 100 µM (inactive) | > 100 µM (inactive) | > 100 µM (inactive) | > 100 µM (inactive) | – | > 100 µM (inactive) | > 100 µM (inactive) | > 100 µM (inactive) | > 100 µM (inactive) | > 100 µM (inactive) | 58.3 µM (inactive) | > 100 µM (inactive) | > 100 µM (inactive) |
| COC(=O)[C@@H]1Cc2c([nH]c3ccccc23)[C@H](c2ccccc2)N1 | 41.3 µM (inactive) | 35.8 µM (inactive) | 14.7 µM (inactive) | 60.5 µM (inactive) | 34.5 µM (inactive) | 85.1 µM (inactive) | 20.9 µM (inactive) | 26.2 µM (inactive) | 35.2 µM (inactive) | 41.8 µM (inactive) | 50.2 µM (inactive) | 38.9 µM (inactive) | 22.8 µM (inactive) | 31.2 µM (inactive) | > 100 µM (inactive) | 41.7 µM (inactive) | – | 33 µM (inactive) | 38.3 µM (inactive) |
| CCCCCCCCNC(=O)SCCCC | 33.8 µM (inactive) | 45.9 µM (inactive) | 21.3 µM (inactive) | 21.3 µM (inactive) | 28.4 µM (inactive) | 38.2 µM (inactive) | 45.5 µM (inactive) | 38 µM (inactive) | 43.4 µM (inactive) | – | 43.2 µM (inactive) | 19.9 µM (inactive) | 46.5 µM (inactive) | – | 37.2 µM (inactive) | 34.9 µM (inactive) | 22.4 µM (inactive) | 29 µM (inactive) | 34.6 µM (inactive) |
| CC(C)C(=O)/C=C/c1ccccc1 | – | 72.1 µM (inactive) | 67.3 µM (inactive) | – | 50.6 µM (inactive) | > 100 µM (inactive) | > 100 µM (inactive) | 91.2 µM (inactive) | 84.7 µM (inactive) | 94.8 µM (inactive) | 87.3 µM (inactive) | 83.6 µM (inactive) | > 100 µM (inactive) | > 100 µM (inactive) | > 100 µM (inactive) | > 100 µM (inactive) | 37.1 µM (inactive) | – | 81.5 µM (inactive) |
| CCOC(=O)/C(=C/c1ccc(C#N)cc1)N(CC)CC | > 100 µM (inactive) | > 100 µM (inactive) | > 100 µM (inactive) | > 100 µM (inactive) | > 100 µM (inactive) | > 100 µM (inactive) | > 100 µM (inactive) | 1.88 µM (inactive) | > 100 µM (inactive) | > 100 µM (inactive) | > 100 µM (inactive) | > 100 µM (inactive) | > 100 µM (inactive) | > 100 µM (inactive) | > 100 µM (inactive) | > 100 µM (inactive) | > 100 µM (inactive) | > 100 µM (inactive) | > 100 µM (inactive) |
| CCCc1ccc(/N=C\c2cc(OC)c(OC)c(OC)c2)cc1 | > 100 µM (inactive) | > 100 µM (inactive) | > 100 µM (inactive) | > 100 µM (inactive) | > 100 µM (inactive) | > 100 µM (inactive) | > 100 µM (inactive) | > 100 µM (inactive) | > 75.9 µM (inactive) | > 100 µM (inactive) | > 100 µM (inactive) | > 52.1 µM (inactive) | > 100 µM (inactive) | – | > 100 µM (inactive) | > 100 µM (inactive) | 24.4 µM (inactive) | > 100 µM (inactive) | > 100 µM (inactive) |
| O=C(c1ccc(O)cc1)C1c2c3c(cc(O)c2C(c2ccc(O)cc2)C1c1cc(O)cc(O)c1)OC(c1ccc(O)cc1)C3c1cc2c(cc1O)OC(c1ccc(O)cc1)C2c1cc(O)cc(O)c1 (centres undefined) | > 12.5 µM (inactive) | > 12.5 µM (inactive) | > 12.5 µM (inactive) | > 12.5 µM (inactive) | > 12.5 µM (inactive) | > 12.5 µM (inactive) | > 12.5 µM (inactive) | – | > 12.5 µM (inactive) | > 12.5 µM (inactive) | 0.065 µM (active) | > 12.5 µM (inactive) | – | > 12.5 µM (inactive) | > 12.5 µM (inactive) | > 12.5 µM (inactive) | > 12.5 µM (inactive) | > 12.5 µM (inactive) | > 12.5 µM (inactive) |
| COc1ccc2nc(NC(=O)C(=O)C(C#N)c3ccc(Cl)c(Cl)c3)sc2c1 (centres undefined) | > 100 µM (inactive) | > 100 µM (inactive) | > 100 µM (inactive) | > 100 µM (inactive) | 84.7 µM (inactive) | > 100 µM (inactive) | > 100 µM (inactive) | > 100 µM (inactive) | > 100 µM (inactive) | > 100 µM (inactive) | > 100 µM (inactive) | > 100 µM (inactive) | > 100 µM (inactive) | – | > 100 µM (inactive) | 79.8 µM (inactive) | > 100 µM (inactive) | > 100 µM (inactive) | > 100 µM (inactive) |
